ChEMBL document CHEMBL1153595, “Structure-based design and parallel synthesis of N-benzyl isatin oximes as JNK3 MAP kinase inhibitors” (Bioorg Med Chem Lett, 2009)

How the values were obtained:
[1] = molecular target: Mitogen-activated protein kinase 10 (Homo sapiens, UniProt P53779); assay: Inhibition of JNK3 by spectrophotometric coupled enzyme assay
[2] = molecular target: Mitogen-activated protein kinase 14 (Homo sapiens, UniProt Q16539); assay: Inhibition of p38alpha by spectrophotometric coupled enzyme assay
Chain of Mitogen-activated protein kinase 14 (Q16539 whole entry): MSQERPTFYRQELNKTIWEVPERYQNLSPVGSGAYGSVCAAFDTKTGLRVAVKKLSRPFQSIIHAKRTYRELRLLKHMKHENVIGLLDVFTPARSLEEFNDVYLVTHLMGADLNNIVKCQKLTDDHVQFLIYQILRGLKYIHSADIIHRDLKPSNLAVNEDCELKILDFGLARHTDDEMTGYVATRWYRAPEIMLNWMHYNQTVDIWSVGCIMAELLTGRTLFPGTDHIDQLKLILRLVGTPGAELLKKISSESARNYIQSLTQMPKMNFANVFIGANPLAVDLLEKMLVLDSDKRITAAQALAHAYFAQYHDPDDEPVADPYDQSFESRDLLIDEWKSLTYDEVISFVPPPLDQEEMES

[3] = molecular target: Mitogen-activated protein kinase 1 (Homo sapiens, UniProt P28482); assay: Inhibition of ERK2 by spectrophotometric coupled enzyme assay
Chain of Mitogen-activated protein kinase 1 (P28482 whole entry): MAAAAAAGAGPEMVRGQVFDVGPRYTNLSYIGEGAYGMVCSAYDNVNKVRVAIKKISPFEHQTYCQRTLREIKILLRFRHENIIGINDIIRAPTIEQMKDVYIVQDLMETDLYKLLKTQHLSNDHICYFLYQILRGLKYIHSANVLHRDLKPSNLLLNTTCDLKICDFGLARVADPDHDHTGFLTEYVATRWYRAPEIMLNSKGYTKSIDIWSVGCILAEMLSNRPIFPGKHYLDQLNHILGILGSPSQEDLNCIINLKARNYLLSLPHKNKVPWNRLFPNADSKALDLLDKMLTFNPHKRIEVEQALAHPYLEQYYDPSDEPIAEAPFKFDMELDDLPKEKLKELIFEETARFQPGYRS

[4] = molecular target: Cyclin-dependent kinase 2 (Homo sapiens, UniProt P24941); assay: Inhibition of CDK2
[5] = molecular target: Mitogen-activated protein kinase 9 (Homo sapiens, UniProt P45984); assay: Inhibition of JNK2
[6] = molecular target: RAC-gamma serine/threonine-protein kinase (Homo sapiens, UniProt Q9Y243); assay: Inhibition of AKT3
Chain of RAC-gamma serine/threonine-protein kinase (Q9Y243 whole entry): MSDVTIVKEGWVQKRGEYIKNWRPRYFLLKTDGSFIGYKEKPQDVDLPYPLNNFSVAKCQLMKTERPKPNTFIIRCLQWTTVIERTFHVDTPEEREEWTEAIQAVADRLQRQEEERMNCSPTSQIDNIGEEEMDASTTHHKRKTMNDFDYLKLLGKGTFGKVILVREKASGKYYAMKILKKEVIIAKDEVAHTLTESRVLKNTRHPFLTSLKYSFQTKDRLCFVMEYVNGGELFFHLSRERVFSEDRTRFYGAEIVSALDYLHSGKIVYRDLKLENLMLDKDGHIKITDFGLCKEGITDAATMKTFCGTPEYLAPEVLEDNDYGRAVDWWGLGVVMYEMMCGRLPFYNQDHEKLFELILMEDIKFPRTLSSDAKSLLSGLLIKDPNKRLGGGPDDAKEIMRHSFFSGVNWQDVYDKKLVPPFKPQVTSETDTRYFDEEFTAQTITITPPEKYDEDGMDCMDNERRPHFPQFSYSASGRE

Angiopoietin-1 receptor = Angiopoietin-1 receptor (Homo sapiens, UniProt Q02763); assay: Inhibition of Tie2
[7] = molecular target: Glycogen synthase kinase-3 beta (Homo sapiens, UniProt P49841); assay: Inhibition of GSK3-beta
Chain of Glycogen synthase kinase-3 beta (P49841 whole entry): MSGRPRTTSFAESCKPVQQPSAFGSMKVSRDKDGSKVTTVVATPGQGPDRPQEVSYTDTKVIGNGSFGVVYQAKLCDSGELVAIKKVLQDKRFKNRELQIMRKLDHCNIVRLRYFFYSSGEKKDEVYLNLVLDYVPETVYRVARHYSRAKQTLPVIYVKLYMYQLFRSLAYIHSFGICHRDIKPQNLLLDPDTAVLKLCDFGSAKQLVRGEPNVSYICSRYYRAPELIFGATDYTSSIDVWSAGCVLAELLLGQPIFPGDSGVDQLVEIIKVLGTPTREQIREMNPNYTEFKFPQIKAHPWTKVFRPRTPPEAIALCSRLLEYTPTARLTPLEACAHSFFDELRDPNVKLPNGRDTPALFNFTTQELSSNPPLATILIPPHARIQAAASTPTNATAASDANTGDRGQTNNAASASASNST

[8] = molecular target: Mitogen-activated protein kinase 8 (Homo sapiens, UniProt P45983); assay: Inhibition of JNK1
Chain of Mitogen-activated protein kinase 8 (P45983 whole entry): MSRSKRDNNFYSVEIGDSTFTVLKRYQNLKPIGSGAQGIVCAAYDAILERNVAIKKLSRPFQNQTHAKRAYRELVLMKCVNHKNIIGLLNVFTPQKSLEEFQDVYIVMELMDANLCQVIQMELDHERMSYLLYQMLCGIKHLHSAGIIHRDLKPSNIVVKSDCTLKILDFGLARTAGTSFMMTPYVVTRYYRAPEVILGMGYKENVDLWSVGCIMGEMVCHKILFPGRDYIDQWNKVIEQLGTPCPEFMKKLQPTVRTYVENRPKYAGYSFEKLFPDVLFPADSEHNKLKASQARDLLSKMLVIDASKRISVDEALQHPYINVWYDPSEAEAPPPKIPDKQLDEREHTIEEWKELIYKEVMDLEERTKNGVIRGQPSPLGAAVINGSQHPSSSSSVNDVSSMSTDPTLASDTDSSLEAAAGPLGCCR

[9] = molecular target: Proto-oncogene tyrosine-protein kinase Src (Homo sapiens, UniProt P12931); assay: Inhibition of Src
Chain of Proto-oncogene tyrosine-protein kinase Src (P12931 2-536 limits assumed): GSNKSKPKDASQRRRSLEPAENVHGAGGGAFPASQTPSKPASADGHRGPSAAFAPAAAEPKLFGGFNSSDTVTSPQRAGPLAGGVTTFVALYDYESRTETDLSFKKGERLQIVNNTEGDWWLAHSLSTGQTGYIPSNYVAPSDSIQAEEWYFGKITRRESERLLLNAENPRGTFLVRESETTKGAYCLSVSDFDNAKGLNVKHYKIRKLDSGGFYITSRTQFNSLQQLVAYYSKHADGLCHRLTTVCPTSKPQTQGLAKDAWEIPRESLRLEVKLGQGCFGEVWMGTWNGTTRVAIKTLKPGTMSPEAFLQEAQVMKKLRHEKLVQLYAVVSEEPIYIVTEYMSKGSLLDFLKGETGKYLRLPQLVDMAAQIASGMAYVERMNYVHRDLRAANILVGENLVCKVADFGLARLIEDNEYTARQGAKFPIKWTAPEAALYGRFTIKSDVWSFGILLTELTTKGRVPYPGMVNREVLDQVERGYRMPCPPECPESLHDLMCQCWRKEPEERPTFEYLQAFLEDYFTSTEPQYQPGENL

[10] = molecular target: Rho-associated protein kinase 1 (Homo sapiens, UniProt Q13464); assay: Inhibition of ROCK1
Chain of Rho-associated protein kinase 1 (Q13464 whole entry): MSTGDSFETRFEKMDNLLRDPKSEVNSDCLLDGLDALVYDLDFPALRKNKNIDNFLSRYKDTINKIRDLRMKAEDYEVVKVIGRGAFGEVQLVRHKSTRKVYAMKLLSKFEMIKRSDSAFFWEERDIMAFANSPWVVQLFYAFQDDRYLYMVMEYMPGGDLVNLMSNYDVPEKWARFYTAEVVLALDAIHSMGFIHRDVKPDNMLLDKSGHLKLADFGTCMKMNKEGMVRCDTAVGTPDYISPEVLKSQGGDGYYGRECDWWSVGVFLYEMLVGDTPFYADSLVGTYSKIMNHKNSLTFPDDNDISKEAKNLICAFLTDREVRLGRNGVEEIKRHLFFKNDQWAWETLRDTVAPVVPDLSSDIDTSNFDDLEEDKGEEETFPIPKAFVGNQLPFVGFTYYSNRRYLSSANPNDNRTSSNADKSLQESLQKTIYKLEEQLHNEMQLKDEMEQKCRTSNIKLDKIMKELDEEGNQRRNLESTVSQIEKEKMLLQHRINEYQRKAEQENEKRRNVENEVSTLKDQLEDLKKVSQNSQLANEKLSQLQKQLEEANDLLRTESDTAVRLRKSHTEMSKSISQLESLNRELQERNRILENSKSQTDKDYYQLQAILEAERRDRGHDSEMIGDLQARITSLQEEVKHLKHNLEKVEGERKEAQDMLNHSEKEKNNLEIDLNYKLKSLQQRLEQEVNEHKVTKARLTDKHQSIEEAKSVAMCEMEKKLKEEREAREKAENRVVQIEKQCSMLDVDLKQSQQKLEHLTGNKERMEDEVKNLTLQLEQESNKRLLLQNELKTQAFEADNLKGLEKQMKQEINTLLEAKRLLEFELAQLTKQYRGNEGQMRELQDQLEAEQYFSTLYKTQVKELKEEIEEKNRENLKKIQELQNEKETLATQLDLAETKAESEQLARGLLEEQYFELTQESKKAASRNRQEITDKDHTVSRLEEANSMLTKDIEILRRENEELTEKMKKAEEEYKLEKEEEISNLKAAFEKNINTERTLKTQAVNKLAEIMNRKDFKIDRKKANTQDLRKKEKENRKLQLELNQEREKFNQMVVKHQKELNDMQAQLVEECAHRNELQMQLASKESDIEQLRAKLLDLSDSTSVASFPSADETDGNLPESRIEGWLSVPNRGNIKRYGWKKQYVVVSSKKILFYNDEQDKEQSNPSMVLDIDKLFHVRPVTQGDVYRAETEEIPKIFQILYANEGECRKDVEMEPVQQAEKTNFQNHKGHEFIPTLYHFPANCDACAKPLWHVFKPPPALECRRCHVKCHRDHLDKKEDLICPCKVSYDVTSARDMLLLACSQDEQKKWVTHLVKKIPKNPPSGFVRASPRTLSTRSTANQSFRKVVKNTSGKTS

[11] = molecular target: Tyrosine-protein kinase Lck (Homo sapiens, UniProt P06239); assay: Inhibition of LCK
Chain of Tyrosine-protein kinase Lck (P06239 whole entry): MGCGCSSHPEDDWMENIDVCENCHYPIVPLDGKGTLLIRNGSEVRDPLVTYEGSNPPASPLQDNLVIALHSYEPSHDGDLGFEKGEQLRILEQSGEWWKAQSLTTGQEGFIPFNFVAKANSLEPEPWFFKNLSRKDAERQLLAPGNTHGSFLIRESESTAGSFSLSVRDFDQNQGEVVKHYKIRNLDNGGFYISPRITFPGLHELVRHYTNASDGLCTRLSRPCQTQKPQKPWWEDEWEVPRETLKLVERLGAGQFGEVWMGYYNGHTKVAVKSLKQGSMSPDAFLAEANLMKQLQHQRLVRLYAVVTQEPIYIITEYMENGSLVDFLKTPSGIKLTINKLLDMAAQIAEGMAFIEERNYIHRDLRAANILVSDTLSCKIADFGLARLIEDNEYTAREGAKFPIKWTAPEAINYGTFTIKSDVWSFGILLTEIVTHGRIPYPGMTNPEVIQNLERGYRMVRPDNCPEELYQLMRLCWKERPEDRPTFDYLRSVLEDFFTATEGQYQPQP

[12] = molecular target: T1, Receptor-type tyrosine-protein kinase FLT3 (Homo sapiens, UniProt P36888); assay: Inhibition of FLT3
T1 sequence (P36888 whole entry): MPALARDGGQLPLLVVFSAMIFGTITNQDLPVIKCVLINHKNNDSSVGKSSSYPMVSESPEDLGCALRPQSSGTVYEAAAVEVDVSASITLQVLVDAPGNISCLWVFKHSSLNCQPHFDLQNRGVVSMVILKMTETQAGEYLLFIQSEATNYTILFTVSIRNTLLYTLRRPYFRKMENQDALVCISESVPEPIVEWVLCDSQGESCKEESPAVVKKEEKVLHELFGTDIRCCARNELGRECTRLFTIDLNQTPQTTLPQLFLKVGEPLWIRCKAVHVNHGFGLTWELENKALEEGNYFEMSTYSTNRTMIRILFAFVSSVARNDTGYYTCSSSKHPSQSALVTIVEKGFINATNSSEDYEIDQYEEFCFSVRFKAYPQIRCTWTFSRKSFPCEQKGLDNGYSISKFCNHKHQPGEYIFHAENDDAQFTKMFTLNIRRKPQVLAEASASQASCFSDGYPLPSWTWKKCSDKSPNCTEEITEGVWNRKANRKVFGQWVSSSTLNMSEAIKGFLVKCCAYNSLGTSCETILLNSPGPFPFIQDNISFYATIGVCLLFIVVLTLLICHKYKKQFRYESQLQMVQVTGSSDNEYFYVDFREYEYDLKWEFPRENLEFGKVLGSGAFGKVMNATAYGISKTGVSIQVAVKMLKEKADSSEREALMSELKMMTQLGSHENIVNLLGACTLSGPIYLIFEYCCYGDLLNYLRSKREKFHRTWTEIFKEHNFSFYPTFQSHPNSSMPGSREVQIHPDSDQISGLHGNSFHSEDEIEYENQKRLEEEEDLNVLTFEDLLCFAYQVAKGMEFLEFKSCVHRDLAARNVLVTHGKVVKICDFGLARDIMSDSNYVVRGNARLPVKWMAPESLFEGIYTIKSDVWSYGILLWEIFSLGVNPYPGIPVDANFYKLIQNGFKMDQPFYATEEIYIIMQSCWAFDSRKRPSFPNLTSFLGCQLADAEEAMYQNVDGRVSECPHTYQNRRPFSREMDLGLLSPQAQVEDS

[13] = molecular target: T2, Tyrosine-protein kinase JAK3 (Homo sapiens, UniProt P52333); assay: Inhibition of JAK3
T2 sequence (P52333 whole entry): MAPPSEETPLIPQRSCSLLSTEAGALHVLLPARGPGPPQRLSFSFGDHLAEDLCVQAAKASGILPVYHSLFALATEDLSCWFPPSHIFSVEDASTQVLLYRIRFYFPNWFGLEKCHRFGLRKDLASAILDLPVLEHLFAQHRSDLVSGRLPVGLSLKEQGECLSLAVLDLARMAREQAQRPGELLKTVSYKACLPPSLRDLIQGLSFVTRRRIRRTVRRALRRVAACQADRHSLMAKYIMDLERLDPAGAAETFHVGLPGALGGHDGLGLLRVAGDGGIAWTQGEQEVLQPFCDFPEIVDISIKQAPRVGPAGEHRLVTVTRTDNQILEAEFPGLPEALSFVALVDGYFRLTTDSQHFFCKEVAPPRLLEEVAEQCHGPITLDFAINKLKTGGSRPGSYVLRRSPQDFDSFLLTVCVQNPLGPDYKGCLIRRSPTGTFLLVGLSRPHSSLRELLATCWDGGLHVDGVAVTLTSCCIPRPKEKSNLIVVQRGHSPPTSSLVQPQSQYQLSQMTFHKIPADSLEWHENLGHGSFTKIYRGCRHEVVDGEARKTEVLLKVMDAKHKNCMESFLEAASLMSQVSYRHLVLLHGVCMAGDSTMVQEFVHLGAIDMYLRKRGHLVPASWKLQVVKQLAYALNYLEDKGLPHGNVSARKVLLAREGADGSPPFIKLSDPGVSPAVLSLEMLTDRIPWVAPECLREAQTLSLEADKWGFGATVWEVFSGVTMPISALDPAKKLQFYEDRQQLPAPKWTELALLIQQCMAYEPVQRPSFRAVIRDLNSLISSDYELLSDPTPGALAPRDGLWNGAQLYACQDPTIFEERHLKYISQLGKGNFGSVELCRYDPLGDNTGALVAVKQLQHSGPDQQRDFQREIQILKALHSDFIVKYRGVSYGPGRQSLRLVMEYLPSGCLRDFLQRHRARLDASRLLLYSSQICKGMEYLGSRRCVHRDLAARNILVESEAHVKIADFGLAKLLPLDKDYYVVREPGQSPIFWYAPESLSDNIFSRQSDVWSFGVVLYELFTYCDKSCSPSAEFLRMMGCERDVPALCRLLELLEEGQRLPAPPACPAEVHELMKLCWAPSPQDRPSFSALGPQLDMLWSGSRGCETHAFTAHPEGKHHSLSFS

Chain of Mitogen-activated protein kinase 10 (P53779 whole entry): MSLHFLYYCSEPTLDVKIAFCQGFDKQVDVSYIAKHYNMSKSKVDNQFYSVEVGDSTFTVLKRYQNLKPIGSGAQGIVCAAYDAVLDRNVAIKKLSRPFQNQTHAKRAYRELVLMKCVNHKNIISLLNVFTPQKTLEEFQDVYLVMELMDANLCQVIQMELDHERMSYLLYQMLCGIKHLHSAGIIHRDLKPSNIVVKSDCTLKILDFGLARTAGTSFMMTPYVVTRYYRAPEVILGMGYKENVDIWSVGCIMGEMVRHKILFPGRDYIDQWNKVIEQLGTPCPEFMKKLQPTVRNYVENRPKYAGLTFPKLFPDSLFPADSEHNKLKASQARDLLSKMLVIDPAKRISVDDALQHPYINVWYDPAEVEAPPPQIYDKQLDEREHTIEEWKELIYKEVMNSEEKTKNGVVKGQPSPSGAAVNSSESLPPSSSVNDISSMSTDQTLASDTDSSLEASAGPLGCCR

| Structure (SMILES) | Ki [1] [µM] | further results |
| --- | --- | --- |
| O=Nc1c(O)n(Cc2cccc(C(F)(F)F)c2)c2ccccc12 | 5.2 |  |
| O=Nc1c(O)n(Cc2ccc(Cl)cc2)c2ccccc12 | 6.7 |  |
| O=Nc1c(O)n(Cc2cccc(Cl)c2)c2ccccc12 | 5 |  |
| O=Nc1c(O)n(Cc2ccccc2)c2ccccc12 | > 10 |  |
| Cc1ccc(Cn2c(O)c(N=O)c3ccccc32)cc1 | 9.9 |  |
| O=C1/C(=N\O)c2c(-c3ccccc3)cccc2N1Cc1cc(F)cc2c1OCOC2 |  | Ki [2]: 9.5 µM; Ki [3]: 25 µM |
| O=C1/C(=N\O)c2ccc(Br)cc2N1Cc1cc(F)cc2c1OCOC2 | 0.1 |  |
| O=C1/C(=N\O)c2ccc(-c3ccccc3)cc2N1Cc1cc(F)cc2c1OCOC2 | 0.2 |  |
| COc1cc(CN2C(=O)/C(=N\O)c3ccccc32)cc(OC)c1 | 0.99 |  |
| Cc1cccc(CN2C(=O)/C(=N\O)c3cc(C)ccc32)c1 | > 10 |  |
| COc1cc(CN2C(=O)/C(=N\O)c3cc(F)ccc32)cc(OC)c1 | 0.79 |  |
| Cc1ccc2c(c1)N(Cc1cc(F)cc3c1OCOC3)C(=O)/C2=N\O | 0.09 | Ki [2]: > 20 µM; Ki [4]: > 30 µM; Ki [5]: 0.07 µM; Ki [6]: > 30 µM; Ki [3]: > 50 µM; Ki (Angiopoietin-1 receptor): > 10 µM; Ki [7]: > 30 µM; Ki [8]: 0.45 µM; Ki [9]: > 30 µM; Ki [10]: > 30 µM; Ki [11]: > 30 µM; Ki [12]: 4 µM; Ki [13]: > 30 µM |
| O=C1/C(=N\O)c2ccc([N+](=O)[O-])cc2N1Cc1cc(F)cc2c1OCOC2 | 0.64 |  |
| O=C1/C(=N\O)c2cc(OC(F)(F)F)ccc2N1Cc1cc(F)cc2c1OCOC2 | 1.7 |  |
| O=C1/C(=N\O)c2ccccc2N1Cc1ccc(F)cc1 | 8.3 |  |
| CCC(=O)Nc1ccc2c(c1)N(Cc1cc(F)cc3c1OCOC3)C(=O)/C2=N\O | 0.61 |  |
| O=C1/C(=N\O)c2ccccc2N1Cc1cc(F)cc2c1OCOC2 | 0.51 |  |
| O=C1/C(=N\O)c2cc(Br)ccc2N1Cc1ccccc1 | 2.5 |  |
| Cc1ccc2c(c1)/C(=N/O)C(=O)N2c1ccccc1 | > 30 |  |
| CCc1cccc2c1/C(=N/O)C(=O)N2Cc1cc(F)cc2c1OCOC2 | 1.4 | Ki [3]: > 15 µM |
| N#Cc1cccc2c1/C(=N/O)C(=O)N2Cc1cc(F)cc2c1OCOC2 | 2 |  |
| O=C1/C(=N\O)c2ccc(C(F)(F)F)cc2N1Cc1cc(F)cc2c1OCOC2 | 0.33 |  |
| O=C(O)c1ccc2c(c1)N(Cc1cc(F)cc3c1OCOC3)C(=O)/C2=N\O | 0.3 |  |
| O=C1/C(=N\O)c2c(-c3cccc(F)c3)cccc2N1Cc1cc(F)cc2c1OCOC2 | 5.8 | Ki [2]: 7.4 µM; Ki [3]: 23 µM |

| Structure (SMILES) | Ki [1] [µM] | further results |
| --- | --- | --- |
| Cc1cccc2c1/C(=N/O)C(=O)N2Cc1cc(F)cc2c1OCOC2 | 0.7 | Ki [3]: > 15 µM |
| Cc1cccc(CN2C(=O)/C(=N\O)c3ccccc32)c1 | 6.8 |  |
| O=C1/C(=N\O)c2cc(F)ccc2N1Cc1ccccc1 | > 10 |  |
| Cc1ccc2c(c1)/C(=N/O)C(=O)N2Cc1cccc(C(F)(F)F)c1 | 2.7 |  |
| COC(=O)c1cccc2c1/C(=N/O)C(=O)N2Cc1cc(F)cc2c1OCOC2 | 30 | Ki [3]: > 15 µM |
| O=C1/C(=N\O)c2c(CCc3ccccc3)cccc2N1Cc1cc(F)cc2c1OCOC2 | > 15 | Ki [2]: 0.03 µM; Ki [3]: > 15 µM |
| O=C1/C(=N\O)c2ccccc2N1Cc1ccc([N+](=O)[O-])cc1 | 7 |  |
| Cc1ccc2c(c1)/C(=N/O)C(=O)N2Cc1ccccc1 | > 10 |  |
| O=C1/C(=N\O)c2cc(Cl)ccc2N1Cc1cc(F)cc2c1OCOC2 | 0.74 |  |
| COc1ccc2c(c1)N(Cc1cc(F)cc3c1OCOC3)C(=O)/C2=N\O | 0.24 |  |
| O=C1/C(=N\O)c2c(/C=C/c3ccccc3)cccc2N1Cc1cc(F)cc2c1OCOC2 |  | Ki [2]: 0.23 µM |
| Nc1ccc2c(c1)N(Cc1cc(F)cc3c1OCOC3)C(=O)/C2=N\O | 0.4 |  |
| CCNC(=O)c1ccc2c(c1)N(Cc1cc(F)cc3c1OCOC3)C(=O)/C2=N\O | 1 |  |
| O=C1/C(=N\O)c2ccccc2N1Cc1ccccc1F | 8.5 |  |
| O=C1/C(=N\O)c2c(Br)cccc2N1Cc1cc(F)cc2c1OCOC2 | 0.185 | Ki [2]: > 10 µM; Ki [3]: > 15 µM |
| O=C1/C(=N\O)c2ccccc2N1Cc1ccccc1[N+](=O)[O-] | > 10 |  |
| C=Cc1cccc2c1/C(=N/O)C(=O)N2Cc1cc(F)cc2c1OCOC2 | 0.14 | Ki [2]: 8 µM; Ki [3]: > 15 µM |
| COC(=O)c1ccc2c(c1)N(Cc1cc(F)cc3c1OCOC3)C(=O)/C2=N\O | 0.16 |  |
| O=C1/C(=N\O)c2c(-c3ccc(F)cc3)cccc2N1Cc1cc(F)cc2c1OCOC2 | 13 | Ki [2]: 3.4 µM; Ki [3]: > 15 µM |
| O=C1/C(=N\O)c2ccccc2N1Cc1cccc(F)c1 | 8.1 |  |
| CS(=O)(=O)Nc1ccc2c(c1)N(Cc1cc(F)cc3c1OCOC3)C(=O)/C2=N\O | 0.46 |  |
| COc1ccc(CN2C(=O)/C(=N\O)c3cc(F)ccc32)cc1 | 1.6 |  |
| O=C1/C(=N\O)c2ccccc2N1Cc1cccc([N+](=O)[O-])c1 | 0.94 |  |
| O=C1/C(=N\O)c2cc(Cl)ccc2N1Cc1ccccc1 | 12 |  |
